Reference: paper PMC9532703, “A novel small molecule RK-019 inhibits FGFR2-amplification gastric cancer cell proliferation and induces apoptosis in vitro and in vivo” (Frontiers in Pharmacology, 2022)

Assays:
Assay in all cases: Kinase selectivity panel
Type in all cases: biochemical
Conditions in all cases: read-out: Inhibition(%) @ 1 µM RK-019
[1] = molecular target: T1, ACK1(h) (Homo sapiens, UniProt Q07912)
T1 construct: purchased Eurofins Discovery Services (KinaseProfiler)
Procedure, shortened: (§1)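 Inhibition ratio was measured at 1 µM test compound in an ATP-site competition binding format across 422 recombinant human kinases.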

[2] = molecular target: T2, ALK(h) (Homo sapiens, UniProt Q9UM73)
T2 construct: purchased Eurofins Discovery Services (KinaseProfiler)
Procedure, shortened: as §1

[3] = molecular target: T3, ASK1(h) (Homo sapiens, UniProt Q99683)
T3 construct: purchased Eurofins Discovery Services (KinaseProfiler)
T3 sequence (Q99683 whole entry): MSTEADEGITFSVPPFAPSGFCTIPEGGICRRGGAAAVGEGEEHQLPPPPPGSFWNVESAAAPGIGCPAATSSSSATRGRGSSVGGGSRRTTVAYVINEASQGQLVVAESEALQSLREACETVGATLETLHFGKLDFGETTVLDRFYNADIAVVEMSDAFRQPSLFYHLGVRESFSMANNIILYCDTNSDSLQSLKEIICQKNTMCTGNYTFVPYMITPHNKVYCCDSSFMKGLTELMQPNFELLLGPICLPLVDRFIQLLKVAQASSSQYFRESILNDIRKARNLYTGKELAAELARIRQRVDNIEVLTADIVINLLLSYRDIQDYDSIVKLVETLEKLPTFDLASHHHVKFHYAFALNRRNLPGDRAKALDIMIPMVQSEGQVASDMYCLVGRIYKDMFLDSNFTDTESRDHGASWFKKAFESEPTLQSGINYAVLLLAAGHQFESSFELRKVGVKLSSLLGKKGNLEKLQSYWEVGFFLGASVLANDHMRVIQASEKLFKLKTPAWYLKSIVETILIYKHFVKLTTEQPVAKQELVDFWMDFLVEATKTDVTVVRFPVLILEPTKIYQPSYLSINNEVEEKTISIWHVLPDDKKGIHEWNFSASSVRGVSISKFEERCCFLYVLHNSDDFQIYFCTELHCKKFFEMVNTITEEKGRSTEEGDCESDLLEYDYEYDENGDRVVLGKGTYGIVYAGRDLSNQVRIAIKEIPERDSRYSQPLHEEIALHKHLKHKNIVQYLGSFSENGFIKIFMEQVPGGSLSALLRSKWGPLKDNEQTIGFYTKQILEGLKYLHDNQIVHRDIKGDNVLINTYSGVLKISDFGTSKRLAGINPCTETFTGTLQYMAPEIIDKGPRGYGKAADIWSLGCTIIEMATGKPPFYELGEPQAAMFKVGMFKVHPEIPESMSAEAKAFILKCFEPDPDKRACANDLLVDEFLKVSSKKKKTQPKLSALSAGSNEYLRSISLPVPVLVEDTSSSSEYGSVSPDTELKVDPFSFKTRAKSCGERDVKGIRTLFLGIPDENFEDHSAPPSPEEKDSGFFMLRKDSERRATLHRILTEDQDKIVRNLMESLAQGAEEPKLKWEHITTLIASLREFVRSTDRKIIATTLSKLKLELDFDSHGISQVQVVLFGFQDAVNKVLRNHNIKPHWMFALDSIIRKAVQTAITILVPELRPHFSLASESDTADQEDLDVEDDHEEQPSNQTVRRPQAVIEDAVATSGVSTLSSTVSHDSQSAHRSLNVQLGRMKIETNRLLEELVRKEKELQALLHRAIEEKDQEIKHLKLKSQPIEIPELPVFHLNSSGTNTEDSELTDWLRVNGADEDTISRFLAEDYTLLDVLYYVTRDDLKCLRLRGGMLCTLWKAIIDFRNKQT
Procedure, shortened: as §1

[4] = molecular target: T4, Arg(m) (Mus musculus, UniProt Q4JIM5)
T4 construct: purchased Eurofins Discovery Services (KinaseProfiler)

[5] = molecular target: T5, CDK13/cyclinK(h) (Homo sapiens, UniProt Q14004)
T5 construct: purchased Eurofins Discovery Services (KinaseProfiler)
Procedure, shortened: as §1

[6] = molecular target: T6, CHK2(I157T)(h) (Homo sapiens, UniProt O96017, I157T)
T6 construct: purchased Eurofins Discovery Services (KinaseProfiler)
Procedure, shortened: as §1

[7] = molecular target: T7, CK1δ(h) (Homo sapiens, UniProt P48730)
T7 construct: purchased Eurofins Discovery Services (KinaseProfiler)
Procedure, shortened: as §1

[8] = molecular target: T8, CLK1(h) (Homo sapiens, UniProt P49759)
T8 construct: purchased Eurofins Discovery Services (KinaseProfiler)
Procedure, shortened: as §1

[9] = molecular target: T9, EGFR(h) (Homo sapiens, UniProt P00533)
T9 construct: purchased Eurofins Discovery Services (KinaseProfiler)
T9 sequence (P00533 25-1210): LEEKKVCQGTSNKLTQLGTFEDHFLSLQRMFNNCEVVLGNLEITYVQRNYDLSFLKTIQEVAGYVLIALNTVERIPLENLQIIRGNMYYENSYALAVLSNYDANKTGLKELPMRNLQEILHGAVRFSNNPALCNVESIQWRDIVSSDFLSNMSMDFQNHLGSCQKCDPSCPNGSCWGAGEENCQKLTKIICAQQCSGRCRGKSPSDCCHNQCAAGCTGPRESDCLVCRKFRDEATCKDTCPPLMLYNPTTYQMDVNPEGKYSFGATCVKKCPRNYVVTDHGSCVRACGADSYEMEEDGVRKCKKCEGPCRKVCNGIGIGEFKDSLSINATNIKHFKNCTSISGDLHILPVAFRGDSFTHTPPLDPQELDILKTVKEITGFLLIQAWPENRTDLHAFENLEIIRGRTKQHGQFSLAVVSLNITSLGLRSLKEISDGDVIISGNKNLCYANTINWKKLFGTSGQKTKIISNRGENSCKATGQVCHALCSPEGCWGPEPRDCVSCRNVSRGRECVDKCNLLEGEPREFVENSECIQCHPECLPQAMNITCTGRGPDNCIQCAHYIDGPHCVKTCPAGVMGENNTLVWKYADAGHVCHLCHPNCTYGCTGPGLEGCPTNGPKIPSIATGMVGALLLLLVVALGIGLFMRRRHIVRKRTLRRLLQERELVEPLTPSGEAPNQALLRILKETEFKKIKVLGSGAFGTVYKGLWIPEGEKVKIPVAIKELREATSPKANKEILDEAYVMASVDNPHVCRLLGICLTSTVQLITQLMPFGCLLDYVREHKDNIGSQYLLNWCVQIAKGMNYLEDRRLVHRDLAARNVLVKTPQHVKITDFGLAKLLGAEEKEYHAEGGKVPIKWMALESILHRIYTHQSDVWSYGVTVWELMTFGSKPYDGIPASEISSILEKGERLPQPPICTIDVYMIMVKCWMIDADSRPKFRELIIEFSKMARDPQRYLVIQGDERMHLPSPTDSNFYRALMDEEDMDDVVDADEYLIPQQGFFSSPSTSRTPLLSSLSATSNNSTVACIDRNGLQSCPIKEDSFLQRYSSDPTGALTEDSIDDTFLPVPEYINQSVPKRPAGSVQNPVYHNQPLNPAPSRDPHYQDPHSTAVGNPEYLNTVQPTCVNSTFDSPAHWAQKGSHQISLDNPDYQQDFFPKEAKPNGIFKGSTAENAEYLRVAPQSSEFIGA
Procedure, shortened: as §1

[10] = molecular target: T10, EphA1(h) (Homo sapiens, UniProt P21709)
T10 construct: purchased Eurofins Discovery Services (KinaseProfiler)
Procedure, shortened: as §1

[11] = molecular target: T11, ErbB4(h) (Homo sapiens, UniProt Q15303)
T11 construct: purchased Eurofins Discovery Services (KinaseProfiler)
Procedure, shortened: as §1

[12] = molecular target: T12, Flt3(D835Y)(h) (Homo sapiens, UniProt P36888, D835Y)
T12 construct: purchased Eurofins Discovery Services (KinaseProfiler)
Procedure, shortened: as §1

[13] = molecular target: T13, Fyn(h) (Homo sapiens, UniProt P06241)
T13 construct: purchased Eurofins Discovery Services (KinaseProfiler)
Procedure, shortened: as §1

[14] = molecular target: T14, HIPK1(h) (Homo sapiens, UniProt Q86Z02)
T14 construct: purchased Eurofins Discovery Services (KinaseProfiler)
Procedure, shortened: as §1

[15] = molecular target: T15, JAK1(h) (Homo sapiens, UniProt P23458)
T15 construct: purchased Eurofins Discovery Services (KinaseProfiler)
Procedure, shortened: as §1

[16] = molecular target: T16, MAP4K3(h) (Homo sapiens, UniProt Q8IVH8)
T16 construct: purchased Eurofins Discovery Services (KinaseProfiler)
Procedure, shortened: as §1

[17] = molecular target: T17, MINK(h) (Homo sapiens, UniProt Q8N4C8)
T17 construct: purchased Eurofins Discovery Services (KinaseProfiler)
T17 sequence (Q8N4C8 whole entry): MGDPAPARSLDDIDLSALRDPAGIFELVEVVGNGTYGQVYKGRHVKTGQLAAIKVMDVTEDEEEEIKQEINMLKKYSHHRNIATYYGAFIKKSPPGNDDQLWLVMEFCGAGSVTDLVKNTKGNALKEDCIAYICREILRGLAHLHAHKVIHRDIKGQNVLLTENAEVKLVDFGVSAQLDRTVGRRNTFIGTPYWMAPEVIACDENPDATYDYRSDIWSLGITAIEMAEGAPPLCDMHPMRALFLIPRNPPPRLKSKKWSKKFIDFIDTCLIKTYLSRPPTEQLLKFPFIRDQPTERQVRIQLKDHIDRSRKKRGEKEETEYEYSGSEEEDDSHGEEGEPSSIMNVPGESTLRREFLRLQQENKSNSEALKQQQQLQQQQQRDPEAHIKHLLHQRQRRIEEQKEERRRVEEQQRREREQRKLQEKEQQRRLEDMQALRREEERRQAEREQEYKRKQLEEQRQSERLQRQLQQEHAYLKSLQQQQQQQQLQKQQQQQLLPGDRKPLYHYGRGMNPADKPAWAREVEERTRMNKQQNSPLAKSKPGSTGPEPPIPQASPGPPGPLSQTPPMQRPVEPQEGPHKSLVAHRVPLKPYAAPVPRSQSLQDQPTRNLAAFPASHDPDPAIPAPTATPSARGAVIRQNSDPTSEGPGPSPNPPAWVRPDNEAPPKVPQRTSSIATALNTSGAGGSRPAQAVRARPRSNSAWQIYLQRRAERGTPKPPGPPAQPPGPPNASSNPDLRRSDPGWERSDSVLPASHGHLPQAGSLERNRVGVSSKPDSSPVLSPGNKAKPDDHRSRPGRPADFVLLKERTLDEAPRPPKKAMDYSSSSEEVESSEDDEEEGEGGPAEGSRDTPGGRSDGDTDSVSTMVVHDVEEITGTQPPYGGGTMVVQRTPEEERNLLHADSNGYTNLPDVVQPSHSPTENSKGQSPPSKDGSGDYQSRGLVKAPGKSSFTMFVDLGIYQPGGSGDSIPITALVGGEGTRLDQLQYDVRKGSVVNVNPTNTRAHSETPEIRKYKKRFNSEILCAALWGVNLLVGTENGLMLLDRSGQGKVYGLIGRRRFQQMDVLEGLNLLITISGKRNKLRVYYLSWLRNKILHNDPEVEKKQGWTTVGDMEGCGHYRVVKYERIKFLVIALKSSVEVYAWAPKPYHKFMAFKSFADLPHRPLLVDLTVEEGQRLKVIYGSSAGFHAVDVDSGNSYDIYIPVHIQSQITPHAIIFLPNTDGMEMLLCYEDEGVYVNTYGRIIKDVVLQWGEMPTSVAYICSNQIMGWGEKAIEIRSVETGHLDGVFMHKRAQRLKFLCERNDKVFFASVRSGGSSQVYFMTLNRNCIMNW
Procedure, shortened: as §1

[18] = molecular target: T18, MRCKγ(h) (Homo sapiens, UniProt Q6DT37)
T18 construct: purchased Eurofins Discovery Services (KinaseProfiler)
Procedure, shortened: as §1

[19] = molecular target: T19, NEK1(h) (Homo sapiens, UniProt Q96PY6)
T19 construct: purchased Eurofins Discovery Services (KinaseProfiler)
Procedure, shortened: as §1

[20] = molecular target: T20, NEK2(h) (Homo sapiens, UniProt P51955)
T20 construct: purchased Eurofins Discovery Services (KinaseProfiler)
Procedure, shortened: as §1

[21] = molecular target: T21, PAR-1Bα(h) (Homo sapiens, UniProt Q7KZI7)
T21 construct: purchased Eurofins Discovery Services (KinaseProfiler)
Procedure, shortened: as §1

[22] = molecular target: T22, PDHK4(h) (Homo sapiens, UniProt Q16654)
T22 construct: purchased Eurofins Discovery Services (KinaseProfiler)
Procedure, shortened: as §1

[23] = molecular target: T23, PI3 Kinase (p110a/p85a)(m) (Mus musculus, UniProt P42337)
T23 construct: purchased Eurofins Discovery Services (KinaseProfiler)

[24] = molecular target: T24, PI3 Kinase (p110d/p85a)(m) (Mus musculus, UniProt O35904)
T24 construct: purchased Eurofins Discovery Services (KinaseProfiler)

[25] = molecular target: T25, PKBα(h) (Homo sapiens, UniProt P31749)
T25 construct: purchased Eurofins Discovery Services (KinaseProfiler)
Procedure, shortened: as §1

[26] = molecular target: T26, Pyk2(h) (Homo sapiens, UniProt Q14289)
T26 construct: purchased Eurofins Discovery Services (KinaseProfiler)
Procedure, shortened: as §1

[27] = molecular target: T27, SIK3(h) (Homo sapiens, UniProt Q9Y2K2)
T27 construct: purchased Eurofins Discovery Services (KinaseProfiler)
Procedure, shortened: as §1

[28] = molecular target: T28, SRPK1(h) (Homo sapiens, UniProt Q96SB4)
T28 construct: purchased Eurofins Discovery Services (KinaseProfiler)
Procedure, shortened: as §1

[29] = molecular target: T29, Src(T341M)(h) (Homo sapiens, UniProt P12931, T341M)
T29 construct: purchased Eurofins Discovery Services (KinaseProfiler)
Procedure, shortened: as §1

[30] = molecular target: T30, TTBK2(h) (Homo sapiens, UniProt Q6IQ55)
T30 construct: purchased Eurofins Discovery Services (KinaseProfiler)
Procedure, shortened: as §1

[31] = molecular target: T31, TYK2(h) (Homo sapiens, UniProt P29597)
T31 construct: purchased Eurofins Discovery Services (KinaseProfiler)
Procedure, shortened: as §1

[32] = molecular target: T32, p70S6K(h) (Homo sapiens, UniProt P23443)
T32 construct: purchased Eurofins Discovery Services (KinaseProfiler)
Procedure, shortened: as §1

T1 sequence (Q07912 whole entry): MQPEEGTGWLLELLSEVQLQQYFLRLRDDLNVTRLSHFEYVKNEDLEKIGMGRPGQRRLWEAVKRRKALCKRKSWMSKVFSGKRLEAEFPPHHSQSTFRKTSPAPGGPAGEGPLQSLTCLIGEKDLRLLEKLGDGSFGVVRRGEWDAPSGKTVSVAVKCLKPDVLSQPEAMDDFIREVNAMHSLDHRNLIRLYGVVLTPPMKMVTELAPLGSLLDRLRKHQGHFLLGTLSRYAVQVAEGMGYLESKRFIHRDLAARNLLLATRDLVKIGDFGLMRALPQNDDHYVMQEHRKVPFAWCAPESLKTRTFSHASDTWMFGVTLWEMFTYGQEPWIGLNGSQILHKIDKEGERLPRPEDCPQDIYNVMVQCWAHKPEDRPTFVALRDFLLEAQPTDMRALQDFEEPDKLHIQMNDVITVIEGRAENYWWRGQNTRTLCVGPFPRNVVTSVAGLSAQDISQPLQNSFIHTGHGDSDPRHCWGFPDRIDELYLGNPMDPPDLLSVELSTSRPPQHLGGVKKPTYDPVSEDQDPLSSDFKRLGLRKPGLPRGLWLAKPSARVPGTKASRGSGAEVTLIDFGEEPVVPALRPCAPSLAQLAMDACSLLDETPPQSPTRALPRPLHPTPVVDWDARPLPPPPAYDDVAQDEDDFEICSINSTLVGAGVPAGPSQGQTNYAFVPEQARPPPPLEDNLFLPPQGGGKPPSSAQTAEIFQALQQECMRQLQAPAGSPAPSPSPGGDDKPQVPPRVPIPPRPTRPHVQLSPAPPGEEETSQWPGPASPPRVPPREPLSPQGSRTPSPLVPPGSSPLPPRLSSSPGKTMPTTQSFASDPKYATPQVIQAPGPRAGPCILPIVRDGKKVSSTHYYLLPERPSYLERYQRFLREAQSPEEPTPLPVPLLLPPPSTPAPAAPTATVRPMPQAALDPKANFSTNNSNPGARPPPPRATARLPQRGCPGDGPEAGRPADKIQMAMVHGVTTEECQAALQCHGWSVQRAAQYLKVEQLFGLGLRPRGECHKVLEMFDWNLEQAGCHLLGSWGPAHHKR

**Q.** For COc1cc(OC)cc(N(CCN[C@H](C)CO)c2ccc3ncc(-c4cnn(C)c4)c(=O)n3c2)c1 [RK-019, (R)-7-((3,5-dimethoxyphenyl) (2-((1-hydroxypropan-2-yl)amino)ethyl)amino)-3-(1-methyl-1H-pyrazol-4-yl)-4H-pyrido [1,2-a]pyrimidin-4-one], which activity at 1 µM [1] is on record?
**A.** 104%

**Q.** And the activity at 1 µM [2]?
**A.** 85%

**Q.** What about the activity at 1 µM [3] of the same compound?
**A.** 118%

**Q.** What about the activity at 1 µM [4] of the same compound?
**A.** 88%

**Q.** What about the activity at 1 µM [5] of the same compound?
**A.** 109%

**Q.** And the activity at 1 µM [6]?
**A.** 100%

**Q.** What about the activity at 1 µM [7] of the same compound?
**A.** 94%

**Q.** What about the activity at 1 µM [8] of the same compound?
**A.** 104%

**Q.** And the activity at 1 µM [9]?
**A.** 119%

**Q.** And the activity at 1 µM [10]?
**A.** 19%

**Q.** And the activity at 1 µM [11]?
**A.** 105%

**Q.** What about the activity at 1 µM [12] of the same compound?
**A.** 86%

**Q.** What about the activity at 1 µM [13] of the same compound?
**A.** 62%

**Q.** And the activity at 1 µM [14]?
**A.** 93%

**Q.** And the activity at 1 µM [15]?
**A.** 120%

**Q.** And the activity at 1 µM [16]?
**A.** 132%

**Q.** And the activity at 1 µM [17]?
**A.** 133%

**Q.** And the activity at 1 µM [18]?
**A.** 94%

**Q.** What about the activity at 1 µM [19] of the same compound?
**A.** 52%

**Q.** What about the activity at 1 µM [20] of the same compound?
**A.** 80%

**Q.** And the activity at 1 µM [21]?
**A.** 92%

**Q.** What about the activity at 1 µM [22] of the same compound?
**A.** 93%

**Q.** What about the activity at 1 µM [23] of the same compound?
**A.** 101%

**Q.** And the activity at 1 µM [24]?
**A.** 98%

**Q.** What about the activity at 1 µM [25] of the same compound?
**A.** 102%

**Q.** What about the activity at 1 µM [26] of the same compound?
**A.** 112%

**Q.** And the activity at 1 µM [27]?
**A.** 104%

**Q.** What about the activity at 1 µM [28] of the same compound?
**A.** 112%

**Q.** And the activity at 1 µM [29]?
**A.** 98%

**Q.** And the activity at 1 µM [30]?
**A.** 82%

**Q.** What about the activity at 1 µM [31] of the same compound?
**A.** 96%

**Q.** And the activity at 1 µM [32]?
**A.** 119%
